Results on 14 compounds are retold here after patent US12583851B2, “Heteroaryl-substituted pyrazine derivatives as pesticides” (Elanco Animal Health GmbH, priority 2019, dated 2026).

The structures appear in SMILES notation.

Type in all cases: in vivo
The subject of assay [1] is Rhipicephalus (Boophilus) microplus larvae (strain Parkhurst, resistant against synthetic pyrethroids). In words: Rhipicephalus (Boophilus) microplus in-vitro contact test, larval cattle tick. Particulars: after 48 hours, read-out: efficacy (larvae dead or moribund); for pest or weed control at 1 µg/cm2, 100 g/ha: 1 μg/cm^2 (=100 g/ha); for pest or weed control at 5 µg/cm2, 500 g/ha: 5 μg/cm^2 (=500 g/ha). The gist of the method:
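Pyrethroid-resistant larvae (strain Parkhurst), 20–50 per tube, exposed by contact to a dried acetone film of compound (5 μg/cm² at 900 ppm) for 48 h at 27 °C and 85% humidity. Percent dead or moribund larvae scored from negative geotactic behaviour.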

In assay [2] the test system is fall armyworm larvae (Spodoptera frugiperda). In words: Spodoptera frugiperda spray test. Particulars: 168 h, maize leaf sections, after 7 days. Put shortly:
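Percent larval kill read at day 7, from 0% (no caterpillars dead) to 100% (all dead). Larvae were placed on dried Zea mays leaf discs previously sprayed with test preparations made from an acetone/DMF solution diluted in 1000 ppm emulsifier-containing water.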

Assay [3] deals with adult cat fleas (Ctenocephalides felis). In words: Ctenocephalides felis in-vitro contact test, adult cat flea. Particulars: after 48 hours, read-out: efficacy (fleas dead or moribund); for pest or weed control at 5 µg/cm2, 500 g/ha: 5 μg/cm^2 (=500 g/ha); for pest or weed control at 1 µg/cm2, 100 g/ha: 1 μg/cm^2 (=100 g/ha). Here is the method: Ctenocephalides felis—In-Vitro Contact Tests Adult Cat Flea
9 mg compound is solved in 1 ml acetone and diluted with acetone to the desired concentration. 250 μL of the test solution is filled in 25 mL glass test tubes and homogeneously distributed on the inner walls by rotation and tilting on a shaking device (2 h at 30 rpm). With a compound concentration of 900 ppm, an inner surface of 44.7 cm^2 and a homogeneous distribution, a dose of 5 μg/cm^2 is achieved.
After the solvent has evaporated, each test tube is filled with 5-10 adult cat fleas (Ctenocephalides felis), closed with a perforated lid and incubated in a lying position at room temperature and relative humidity. After 48 hours efficacy is determined. The fleas are patted on the ground of the tubes and are incubated on a heating plate at 45-50° C. for at most 5 minutes Immotile or uncoordinated moving fleas, which are not able to escape the heat by climbing upwards, are marked as dead or moribund.
An efficacy of 100% means all fleas are dead or moribund; 0% means no fleas are dead or moribund.

Assay [4] concerns larvae of the banded cucumber beetle (Diabrotica balteata). In words: Diabrotica balteata spray test. Particulars: 168 h, after 7 days, read-out: efficacy (seedling growth); for pest or weed control at 32 µg/disc, 100 g/ha: 100 g/ha (=32 μg/well); for pest or weed control at 6.4 µg/disc, 20 g/ha: 20 g/ha (=6.4 μg/well). Put shortly:
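Efficacy was read 7 days after infesting each unit with 10–20 banded cucumber beetle larvae, as % of seedlings growing like untreated, uninfested controls. Before infestation, wheat seeds germinated 1 day on agar (5 per well) were sprayed with the active ingredient. The active was formulated in acetone/DMF and diluted in water containing emulsifier.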

Turning to `CC(NC(=O)c1cc(C(F)(F)F)cc(C(F)(F)F)c1)c1nccnc1-c1ccc(C(=O)N(C)CC2CC2)cn1` (racemic) [Example I-32, (rac)-6-(3-{1-[3,5-Bis(trifluoromethyl)benzamido]ethyl}pyrazin-2-yl)-N-(cyclopropylmethyl)-N-methylpyridine-3-carboxamide], the pest or weed control at 1 µg/cm2, 100 g/ha in assay [1] was 100%. Further, the pest or weed control at 5 µg/cm2, 500 g/ha in assay [1] and in assay [3] was 100% in each case. In assay [2], the mortality (commonly the percentage killed) at 100 g/ha was 100%.

Turning to `CC(NC(=O)c1cc(Br)cc(C#N)c1)c1nccnc1-c1ccc(C(=O)N2CCOCC2)cn1` (racemic) [Example I-33, (rac)-3-Bromo-5-cyano-N-[1-{3-[5-(morpholine-4-carbonyl)pyridin-2-yl]pyrazin-2-yl}ethyl]benzamide], the pest or weed control at 1 µg/cm2, 100 g/ha in assay [1] turned out to be 90%; in assay [3], 100%. The pest or weed control at 5 µg/cm2, 500 g/ha in assay [1] and in assay [3] was 100% in each case.

As to `CCNC(=O)c1ccc(-c2nccnc2C(C)NC(=O)c2cc(C(F)(F)F)cc(C(F)(F)F)c2)nc1` (racemic) [Example I-35, (rac)-6-(3-{1-[3,5-Bis(trifluoromethyl)benzamido]ethyl}pyrazin-2-yl)-N-ethylpyridine-3-carboxamide], in assay [1], the pest or weed control at 1 µg/cm2, 100 g/ha came to 100% and the pest or weed control at 5 µg/cm2, 500 g/ha came out at 100%. Further, in assay [3], the pest or weed control at 1 µg/cm2, 100 g/ha is 80% and the pest or weed control at 5 µg/cm2, 500 g/ha amounted to 100%.

Consider `CC(NC(=O)c1cc(Br)cc(OC(F)(F)F)c1)c1nccnc1-c1ncc(C(=O)N2CCOCC2)s1` (racemic) [Example I-61, (rac)-3-Bromo-N-[1-{3-[5-(morpholine-4-carbonyl)-1,3-thiazol-2-yl]pyrazin-2-yl}ethyl]-5-(trifluoromethoxy)benzamide], for which the pest or weed control at 1 µg/cm2, 100 g/ha in assay [1] and in assay [3] was 100% in each case. Further, the pest or weed control at 5 µg/cm2, 500 g/ha in assay [1] and in assay [3] was 100% throughout.

With `CC(NC(=O)c1cc(Cl)cc(S(=O)(=O)C(F)(F)F)c1)c1nccnc1-n1cc(C#N)cn1` (racemic) [Example I-114, (rac)-3-Chloro-N-{1-[3-(4-cyano-1H-pyrazol-1-yl)pyrazin-2-yl]ethyl}-5-(trifluoromethanesulfonyl)benzamide], in assay [1], the pest or weed control at 1 µg/cm2, 100 g/ha is 90% and the pest or weed control at 5 µg/cm2, 500 g/ha turned out to be 90%. The pest or weed control at 32 µg/disc, 100 g/ha in assay [4] is 100%. This compound gave a mortality at 100 g/ha in assay [2] of 100%.

With `CC(NC(=O)c1cc(C#N)cc(C(F)(F)F)c1)c1nccnc1-n1cc(C#N)cn1` (racemic) [Example I-115, (rac)-3-Cyano-N-{1-[3-(4-cyano-1H-pyrazol-1-yl)pyrazin-2-yl]ethyl}-5-(trifluoromethyl)benzamide], in assay [1], the pest or weed control at 1 µg/cm2, 100 g/ha amounted to 100% and the pest or weed control at 5 µg/cm2, 500 g/ha turned out to be 100%. Further, in assay [4], the pest or weed control at 6.4 µg/disc, 20 g/ha was 100% and the pest or weed control at 32 µg/disc, 100 g/ha amounted to 100%. The mortality at 100 g/ha in assay [2] is 100%.

For `CC(NC(=O)c1cc(C#N)cc(OC(F)(F)F)c1)c1nccnc1-n1cc(C#N)cn1` (racemic) [Example I-116, (rac)-3-Cyano-N-{1-[3-(4-cyano-1H-pyrazol-1-yl)pyrazin-2-yl]ethyl}-5-(trifluoromethoxy)benzamide], in assay [1], the pest or weed control at 1 µg/cm2, 100 g/ha is 90% and the pest or weed control at 5 µg/cm2, 500 g/ha came out at 100%. In assay [4], the pest or weed control at 6.4 µg/disc, 20 g/ha turned out to be 100% and the pest or weed control at 32 µg/disc, 100 g/ha is 100%. Also, in assay [2], the mortality at 100 g/ha came to 100%.

For the compound `CC(NC(=O)c1cc(Br)cc(C(F)(F)F)c1)c1nccnc1-c1ncc(C(=O)N(C)C)s1` (racemic) [Example I-118, (rac)-2-(3-{1-[3-Bromo-5-(trifluoromethyl)benzamido]ethyl}pyrazin-2-yl)-N,N-dimethyl-1,3-thiazole-5-carboxamide], in assay [1], the pest or weed control at 1 µg/cm2, 100 g/ha was found to be 100% and the pest or weed control at 5 µg/cm2, 500 g/ha came to 100%. For the same compound, in assay [4], the pest or weed control at 6.4 µg/disc, 20 g/ha was 100% and the pest or weed control at 32 µg/disc, 100 g/ha was 100%. Also, the mortality at 100 g/ha in assay [2] is 100%. Further, the pest or weed control at 5 µg/cm2, 500 g/ha in assay [3] came out at 90%.

For the compound `CC(NC(=O)c1cc(Br)cc(C(F)(F)F)c1)c1nccnc1-c1ncc(C(=O)N(C)CC2CC2)s1` (racemic) [Example I-119, (rac)-2-(3-{1-[3-Bromo-5-(trifluoromethyl)benzamido]ethyl}pyrazin-2-yl)-N-(cyclopropylmethyl)-N-methyl-1,3-thiazole-5-carboxamide], in assay [1], the pest or weed control at 1 µg/cm2, 100 g/ha turned out to be 100% and the pest or weed control at 5 µg/cm2, 500 g/ha was 100%. Also, in assay [4], the pest or weed control at 6.4 µg/disc, 20 g/ha was determined as 100% and the pest or weed control at 32 µg/disc, 100 g/ha was found to be 100%. In assay [2], the mortality at 100 g/ha turned out to be 100%. For the same compound, the pest or weed control at 5 µg/cm2, 500 g/ha in assay [3] was found to be 90%.

`CC(NC(=O)c1cc(Br)cc(C(F)(F)F)c1)c1nccnc1-c1ncc(C(=O)N2C[C@@H](C)O[C@@H](C)C2)s1` (mixture of isomers) [Example I-120, (rac)-3-Bromo-N-[1-(3-{5-[(cis)-2,6-dimethylmorpholine-4-carbonyl]-1,3-thiazol-2-yl}pyrazin-2-yl)ethyl]-5-(trifluoromethyl)benzamide]: in assay [1], the pest or weed control at 1 µg/cm2, 100 g/ha was 100% and the pest or weed control at 5 µg/cm2, 500 g/ha was 100%. Also, the pest or weed control at 32 µg/disc, 100 g/ha in assay [4] came to 100%. The mortality at 100 g/ha in assay [2] turned out to be 100%.

On to `Cc1cnc(C(C)NC(=O)c2cc(C(F)(F)F)cc(C(F)(F)F)c2)c(-c2ncc(C(=O)N(C)CC#N)s2)n1` (racemic) [Example I-124, (rac)-2-(3-{1-[3,5-Bis(trifluoromethyl)benzamido]ethyl}-6-methylpyrazin-2-yl)-N-(cyanomethyl)-N-methyl-1,3-thiazole-5-carboxamide], for which, in assay [1], the pest or weed control at 1 µg/cm2, 100 g/ha turned out to be 100% and the pest or weed control at 5 µg/cm2, 500 g/ha came out at 100%. In addition, in assay [4], the pest or weed control at 6.4 µg/disc, 20 g/ha amounted to 100% and the pest or weed control at 32 µg/disc, 100 g/ha worked out at 100%. Also, the mortality at 100 g/ha in assay [2] is 100%.

Take `CC(NC(=O)c1cc(OC(F)F)cc(OC(F)F)c1)c1nccnc1-c1ncc(C(=O)N(C)CC2CC2)s1` (racemic) [Example I-143, (rac)-2-(3-{1-[3,5-Bis(difluoromethoxy)benzamido]ethyl}pyrazin-2-yl)-N-(cyclopropylmethyl)-N-methyl-1,3-thiazole-5-carboxamide]: in assay [1], the pest or weed control at 1 µg/cm2, 100 g/ha worked out at 100% and the pest or weed control at 5 µg/cm2, 500 g/ha came to 90%. Further, in assay [4], the pest or weed control at 6.4 µg/disc, 20 g/ha stood at 100% and the pest or weed control at 32 µg/disc, 100 g/ha worked out at 100%. Further, the mortality at 100 g/ha in assay [2] is 100%.

Regarding `CC(NC(=O)c1cc(Cl)cc(Br)c1)c1nccnc1-c1ccc(Cl)cn1` (centres unmarked) [Example I-19], in assay [4], the pest or weed control at 6.4 µg/disc, 20 g/ha turned out to be 100% and the pest or weed control at 32 µg/disc, 100 g/ha stood at 100%. In assay [2], the mortality at 100 g/ha is 100%. The pest or weed control at 5 µg/cm2, 500 g/ha in assay [3] stood at 80%.

For `COc1ccc(-c2nccnc2C(C)NC(=O)c2cc(Br)cc(OC(F)(F)F)c2)nc1` (centres unmarked) [Example I-27], in assay [1], the pest or weed control at 1 µg/cm2, 100 g/ha came out at 90% and the pest or weed control at 5 µg/cm2, 500 g/ha is 80%. The pest or weed control at 32 µg/disc, 100 g/ha in assay [4] was 100%. Besides, in assay [3], the pest or weed control at 1 µg/cm2, 100 g/ha worked out at 80% and the pest or weed control at 5 µg/cm2, 500 g/ha was determined as 80%.
